According to PubChem BioAssay AID2060891 (Molecular Pharmacology Branch, DTP, NCI, 2025):
pIC50: −log10 of the molar value.

System: K98450-129-R-PDC complex spheroid growth, percent test/control
Test: Anticancer human tumor K98450-129-R-PDC patient-derived colon adenocarcinoma cell line growth inhibition [RAS]
Conditions: for pIC50: curve of first compound; for viability, T/C: stronger effect = lower value
How it was run: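 Agents were tested in combination matrices in half-log decrements from a top concentration at or near clinical Cmax (10 microM if undetermined). Targets were multi-cell spheroids of tumour lines plus HUVEC and MSC stromal cells.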

[1] = second compound 0.000949 µM, first compound 0.0316 µM
[2] = second compound 0.000949 µM, first compound 0.1 µM
[3] = second compound 0.000949 µM, first compound 0.316 µM
[4] = second compound 0.000949 µM, first compound 1 µM
[5] = second compound 0.000949 µM, first compound 3.16 µM
[6] = second compound 0.000949 µM, first compound 10 µM
[7] = second compound 0.003 µM, first compound 0.0316 µM
[8] = second compound 0.003 µM, first compound 0.1 µM
[9] = second compound 0.003 µM, first compound 0.316 µM
[10] = second compound 0.003 µM, first compound 1 µM
[11] = second compound 0.003 µM, first compound 3.16 µM
[12] = second compound 0.003 µM, first compound 10 µM
[13] = second compound 0.00949 µM, first compound 0.0316 µM
[14] = second compound 0.00949 µM, first compound 0.1 µM
[15] = second compound 0.00949 µM, first compound 0.316 µM
[16] = second compound 0.00949 µM, first compound 1 µM
[17] = second compound 0.00949 µM, first compound 3.16 µM
[18] = second compound 0.00949 µM, first compound 10 µM
[19] = second compound 0.03 µM, first compound 0.0316 µM
[20] = second compound 0.03 µM, first compound 0.1 µM
[21] = second compound 0.03 µM, first compound 0.316 µM
[22] = second compound 0.03 µM, first compound 1 µM
[23] = second compound 0.03 µM, first compound 3.16 µM
[24] = second compound 0.03 µM, first compound 10 µM
[25] = second compound 0.0949 µM, first compound 0.0316 µM
[26] = second compound 0.0949 µM, first compound 0.1 µM
[27] = second compound 0.0949 µM, first compound 0.316 µM
[28] = second compound 0.0949 µM, first compound 1 µM
[29] = second compound 0.0949 µM, first compound 3.16 µM
[30] = second compound 0.0949 µM, first compound 10 µM
[31] = second compound 0.3 µM, first compound 0.0316 µM
[32] = second compound 0.3 µM, first compound 0.1 µM
[33] = second compound 0.3 µM, first compound 0.316 µM
[34] = second compound 0.3 µM, first compound 1 µM
[35] = second compound 0.3 µM, first compound 3.16 µM
[36] = second compound 0.3 µM, first compound 10 µM
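Also: spheroids exposed to agents for seven days before the viability readout.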
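For viability, T/C in this document: luminescence used as a proxy for viable cell amount.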

Q: How did the pIC50 (second compound 0.000949 µM) turn out when `CC1(O)CCCC1n1c(=O)c(C(F)F)cc2cnc(NC3CCN(S(C)(=O)=O)CC3)nc21` (centres undefined) + CCn1c(-c2cc(N3CCN(C)CC3)cnc2C(C)OC)c2c3cc(ccc31)-c1csc(n1)CC(NC(=O)C1CC1C)C(=O)N1CCCC(N1)C(=O)OCC(C)(C)C2 was run?
A: Its pIC50 is under 5.00.

Q: And the pIC50 (second compound 0.003 µM)?
A: The pIC50 was under 5.00.

Q: And the pIC50 (second compound 0.00949 µM)?
A: The pIC50 was 5.63.

Q: What about the pIC50 (second compound 0.03 µM) of the same molecule?
A: Its pIC50 is over 7.50.

Q: And the pIC50 (second compound 0.0949 µM)?
A: The pIC50 was over 7.50.

Q: And the pIC50 (second compound 0.3 µM)?
A: Its pIC50 is over 7.50.

Q: What about the viability, T/C [1] of the same molecule?
A: Its viability, T/C is 97.3%.

Q: What about the viability, T/C [2] of the same molecule?
A: Its viability, T/C is 94.3%.

Q: What about the viability, T/C [3] of the same molecule?
A: The viability, T/C was 95.8%.

Q: And the viability, T/C [4]?
A: The viability, T/C was 72%.

Q: What about the viability, T/C [5] of the same molecule?
A: The viability, T/C was 72.1%.

Q: And the viability, T/C [6]?
A: Its viability, T/C is 78.4%.

Q: And the viability, T/C [7]?
A: Its viability, T/C is 81.7%.

Q: And the viability, T/C [8]?
A: Its viability, T/C is 78.6%.

Q: What about the viability, T/C [9] of the same molecule?
A: Its viability, T/C is 60.3%.

Q: And the viability, T/C [10]?
A: Its viability, T/C is 74.2%.

Q: What about the viability, T/C [11] of the same molecule?
A: Its viability, T/C is 68.3%.

Q: What about the viability, T/C [12] of the same molecule?
A: Its viability, T/C is 71%.

Q: What about the viability, T/C [13] of the same molecule?
A: Its viability, T/C is 77.1%.

Q: And the viability, T/C [14]?
A: Its viability, T/C is 69.8%.

Q: And the viability, T/C [15]?
A: Its viability, T/C is 60.5%.

Q: And the viability, T/C [16]?
A: Its viability, T/C is 50.9%.

Q: What about the viability, T/C [17] of the same molecule?
A: Its viability, T/C is 50.5%.

Q: And the viability, T/C [18]?
A: Its viability, T/C is 47.8%.

Q: What about the viability, T/C [19] of the same molecule?
A: Its viability, T/C is 47.9%.

Q: And the viability, T/C [20]?
A: The viability, T/C was 46.9%.

Q: What about the viability, T/C [21] of the same molecule?
A: Its viability, T/C is 48.4%.

Q: And the viability, T/C [22]?
A: Its viability, T/C is 36.6%.

Q: And the viability, T/C [23]?
A: The viability, T/C was 35.4%.

Q: What about the viability, T/C [24] of the same molecule?
A: The viability, T/C was 28.2%.

Q: And the viability, T/C [25]?
A: The viability, T/C was 22.6%.

Q: What about the viability, T/C [26] of the same molecule?
A: Its viability, T/C is 22.1%.

Q: What about the viability, T/C [27] of the same molecule?
A: Its viability, T/C is 18.2%.

Q: What about the viability, T/C [28] of the same molecule?
A: The viability, T/C was 17.9%.

Q: And the viability, T/C [29]?
A: Its viability, T/C is 21%.

Q: What about the viability, T/C [30] of the same molecule?
A: The viability, T/C was 17.7%.

Q: And the viability, T/C [31]?
A: The viability, T/C was 11.4%.

Q: What about the viability, T/C [32] of the same molecule?
A: Its viability, T/C is 11.9%.

Q: What about the viability, T/C [33] of the same molecule?
A: The viability, T/C was 12.3%.

Q: And the viability, T/C [34]?
A: Its viability, T/C is 13.8%.

Q: What about the viability, T/C [35] of the same molecule?
A: The viability, T/C was 12.7%.

Q: And the viability, T/C [36]?
A: The viability, T/C was 11.8%.

Q: With `CCC(CC)c1cc(NC2CCC(N)C2)n2nccc2n1` (centres undefined) + CCn1c(-c2cc(N3CCN(C)CC3)cnc2C(C)OC)c2c3cc(ccc31)-c1csc(n1)CC(NC(=O)C1CC1C)C(=O)N1CCCC(N1)C(=O)OCC(C)(C)C2 as the molecule, how does the pIC50 (second compound 0.000949 µM) read?
A: Its pIC50 is 5.39.

Q: What about the pIC50 (second compound 0.003 µM) of the same molecule?
A: The pIC50 was 5.43.

Q: And the pIC50 (second compound 0.00949 µM)?
A: The pIC50 was 5.63.

Q: What about the pIC50 (second compound 0.03 µM) of the same molecule?
A: The pIC50 was 6.05.

Q: What about the pIC50 (second compound 0.0949 µM) of the same molecule?
A: Its pIC50 is over 7.50.

Q: And the pIC50 (second compound 0.3 µM)?
A: Its pIC50 is over 7.50.

Q: What about the viability, T/C [1] of the same molecule?
A: The viability, T/C was 97.9%.

Q: And the viability, T/C [2]?
A: The viability, T/C was 88%.

Q: What about the viability, T/C [3] of the same molecule?
A: Its viability, T/C is 95.7%.

Q: What about the viability, T/C [4] of the same molecule?
A: The viability, T/C was 65.1%.

Q: What about the viability, T/C [5] of the same molecule?
A: The viability, T/C was 68.5%.

Q: And the viability, T/C [6]?
A: Its viability, T/C is 16.4%.

Q: What about the viability, T/C [7] of the same molecule?
A: The viability, T/C was 91.7%.

Q: And the viability, T/C [8]?
A: The viability, T/C was 83.2%.

Q: What about the viability, T/C [9] of the same molecule?
A: Its viability, T/C is 75.7%.

Q: What about the viability, T/C [10] of the same molecule?
A: The viability, T/C was 66.3%.

Q: What about the viability, T/C [11] of the same molecule?
A: Its viability, T/C is 63.3%.

Q: What about the viability, T/C [12] of the same molecule?
A: Its viability, T/C is 13.3%.

Q: What about the viability, T/C [13] of the same molecule?
A: The viability, T/C was 81.2%.

Q: What about the viability, T/C [14] of the same molecule?
A: The viability, T/C was 60.9%.

Q: And the viability, T/C [15]?
A: The viability, T/C was 61%.

Q: What about the viability, T/C [16] of the same molecule?
A: The viability, T/C was 62.7%.

Q: And the viability, T/C [17]?
A: The viability, T/C was 48.6%.

Q: And the viability, T/C [18]?
A: The viability, T/C was 12.9%.

Q: What about the viability, T/C [19] of the same molecule?
A: The viability, T/C was 57.4%.

Q: What about the viability, T/C [20] of the same molecule?
A: The viability, T/C was 44.2%.

Q: And the viability, T/C [21]?
A: The viability, T/C was 51.2%.

Q: What about the viability, T/C [22] of the same molecule?
A: The viability, T/C was 49.9%.

Q: What about the viability, T/C [23] of the same molecule?
A: The viability, T/C was 18.6%.

Q: And the viability, T/C [24]?
A: Its viability, T/C is 12.2%.

Q: And the viability, T/C [25]?
A: Its viability, T/C is 23.2%.

Q: What about the viability, T/C [26] of the same molecule?
A: Its viability, T/C is 20.8%.

Q: And the viability, T/C [27]?
A: Its viability, T/C is 20.7%.

Q: And the viability, T/C [28]?
A: Its viability, T/C is 17%.

Q: What about the viability, T/C [29] of the same molecule?
A: The viability, T/C was 5.39%.

Q: And the viability, T/C [30]?
A: Its viability, T/C is 10.7%.

Q: And the viability, T/C [31]?
A: The viability, T/C was 12.3%.

Q: What about the viability, T/C [32] of the same molecule?
A: Its viability, T/C is 13%.

Q: And the viability, T/C [33]?
A: Its viability, T/C is 11.2%.

Q: What about the viability, T/C [34] of the same molecule?
A: The viability, T/C was 11.6%.

Q: What about the viability, T/C [35] of the same molecule?
A: The viability, T/C was 3.99%.

Q: And the viability, T/C [36]?
A: Its viability, T/C is 12.9%.
